{"source": "paper PMC6642186", "about": "“Molecular mechanism of setron-mediated inhibition of full-length 5-HT3A receptor” (Nature Communications, 2019)", "key": {"[1]": {"system": "α7nAChR", "design": "method as in PMID 11212100, PMID 15781147", "conditions": "cited from earlier work"}, "[2]": {"conditions": "tertiary ammonium in the bicyclic ring; no reference given; cited from earlier work"}, "[3]": {"target": "T1, 5-HT3AR W156Y mutant (Mus musculus, UniProt P23979, W183Y)", "T1 construct": "Full-length 5-HT3AR messenger RNA (mRNA) was injected into oocytes; expressed in transfected cells; host or cells: Xenopus laevis oocytes (mRNA injection, pTLN vector)", "T1 sequence (P23979 24-483 isoform P23979-2 W183Y)": "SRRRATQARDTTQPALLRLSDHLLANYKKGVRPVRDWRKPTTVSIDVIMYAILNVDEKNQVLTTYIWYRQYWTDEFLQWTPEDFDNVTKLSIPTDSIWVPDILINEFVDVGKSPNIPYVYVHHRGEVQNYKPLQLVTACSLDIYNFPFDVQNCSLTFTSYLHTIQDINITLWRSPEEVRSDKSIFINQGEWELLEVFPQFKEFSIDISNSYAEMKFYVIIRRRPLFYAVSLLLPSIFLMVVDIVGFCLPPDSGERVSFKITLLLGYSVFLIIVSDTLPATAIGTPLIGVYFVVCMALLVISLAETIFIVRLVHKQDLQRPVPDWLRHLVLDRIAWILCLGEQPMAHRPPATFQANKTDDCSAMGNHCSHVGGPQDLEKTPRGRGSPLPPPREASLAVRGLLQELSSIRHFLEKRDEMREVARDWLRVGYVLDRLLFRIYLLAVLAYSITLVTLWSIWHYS", "experiment": "Serotonin dose response by TEVC recordings in oocytes", "type": "cell-based", "experimental": "(§1) Data are shown as mean ± s.d. (n is indicated within parentheses). Significance at p = 0.001 (***) and […] calculated by two-sample t test for WT and mutants. Source data are provided as a Source Data file\n(§2) The gene encoding mouse 5-HT3AR (purchased from GenScript) was inserted into a Xenopus laevis expression vector (pTLN) using cloning primers shown in Supplementary Table 1. DNA linearization was carried out with the Mlu1 restriction enzyme overnight at 37 °C. mRNA synthesis was done using the mMessage mMachine Kit (Ambion) as per the manufacturer’s instructions and purification was done with RNAeasy Kit (Qiagen). mRNA for studied mutants was prepared in the same way. Three to ten nanograms of mRNA was injected into X. laevis oocytes (stages V–VI) and experiments were performed 2–5 days after injection. For control experiments to verify that no endogenous currents were present, oocytes were injected with the same volume of water. W.F. Boron kindly provided oocytes used in this study. Female X. laevis were purchased from Nasco. Animal experimental procedures were approved by Institutional Animal Care and Use Committee (IACUC) of Case Western Reserve University. […] Oocytes were clamped at a holding potential of −60 mV. Solutions were changed using a syringe pump perfusion system flowing at a rate of 6 ml/min."}, "[4]": {"target": "T2, wild-type (WT) 5-HT3AR (Mus musculus, UniProt P23979)", "T2 construct": "Full-length 5-HT3AR messenger RNA (mRNA) was injected into oocytes; expressed in transfected cells; host or cells: Xenopus laevis oocytes (mRNA injection, pTLN vector)", "T2 sequence (P23979 24-483 isoform P23979-2 limits assumed)": "T1 sequence (P23979 24-483 isoform P23979-2 W183Y) with Y160W", "experiment": "Serotonin dose response by TEVC recordings in oocytes", "type": "cell-based", "conditions": "for Normalized current: wt", "experimental": "as §1, §2"}, "[5]": {"target": "T3, 5-HT3AR R65A mutant (Mus musculus, UniProt P23979, R92A)", "T3 construct": "Full-length 5-HT3AR messenger RNA (mRNA) was injected into oocytes; expressed in transfected cells; host or cells: Xenopus laevis oocytes (mRNA injection, pTLN vector)", "T3 sequence (P23979 24-483 isoform P23979-2 R92A)": "T1 sequence (P23979 24-483 isoform P23979-2 W183Y) with R69A, Y160W", "experiment": "Serotonin dose response by TEVC recordings in oocytes", "type": "cell-based", "experimental": "as §1, §2"}, "[6]": {"target": "T4, 5-HT3AR W63Y mutant (Mus musculus, UniProt P23979, W90Y)", "T4 construct": "Full-length 5-HT3AR messenger RNA (mRNA) was injected into oocytes; expressed in transfected cells; host or cells: Xenopus laevis oocytes (mRNA injection, pTLN vector)", "T4 sequence (P23979 24-483 isoform P23979-2 W90Y)": "T1 sequence (P23979 24-483 isoform P23979-2 W183Y) with W67Y, Y160W", "experiment": "Serotonin dose response by TEVC recordings in oocytes", "type": "cell-based", "experimental": "as §1, §2"}, "[7]": {"target": "T5, 5-HT3AR Y207F mutant (Mus musculus, UniProt P23979, Y234F)", "T5 construct": "Full-length 5-HT3AR messenger RNA (mRNA) was injected into oocytes; expressed in transfected cells; host or cells: Xenopus laevis oocytes (mRNA injection, pTLN vector)", "T5 sequence (P23979 24-483 isoform P23979-2 Y234F)": "T1 sequence (P23979 24-483 isoform P23979-2 W183Y) with Y160W, Y211F", "experiment": "Serotonin dose response by TEVC recordings in oocytes", "type": "cell-based", "experimental": "as §1, §2"}, "[8]": {"target": "T6, 5-HT3AR Y126F mutant (Mus musculus, UniProt P23979, Y153F)", "T6 construct": "Full-length 5-HT3AR messenger RNA (mRNA) was injected into oocytes; expressed in transfected cells; host or cells: Xenopus laevis oocytes (mRNA injection, pTLN vector)", "T6 sequence (P23979 24-483 isoform P23979-2 Y153F)": "T1 sequence (P23979 24-483 isoform P23979-2 W183Y) with Y130F, Y160W", "experiment": "Serotonin dose response by TEVC recordings in oocytes", "type": "cell-based", "experimental": "as §1, §2"}, "[9]": {"system": "human 5-HT3AR with mutations at the Arg65 position", "design": "method as in PMID 28137449", "conditions": "cited from earlier work"}, "[10]": {"conditions": "serotonin dose response, TEVC at −60 mV, oocytes"}}, "note": "Residue numbers refer to the chain shown, from its start.", "data": [{"smiles": "CN1C2CCCC1CC(NC(=O)c1nn(C)c3ccccc13)C2", "note": "(stereo not shown) [granisetron]", "values": [{"measurement": "binding to α7nAChR", "setting": "[1]", "result": "does not bind"}, {"measurement": "pKa", "setting": "[2]", "result": 9.6}]}, {"smiles": "NCCc1c[nH]c2ccc(O)cc12", "note": "[serotonin]", "values": [{"measurement": "Normalized current", "setting": "[3]; 20 microM serotonin", "result": 0.00976}, {"measurement": "Normalized current", "setting": "[3]; 50 microM serotonin", "result": 0.04708}, {"measurement": "Normalized current", "setting": "[3]; 100 microM serotonin", "result": 0.2083}, {"measurement": "Normalized current", "setting": "[3]; 200 microM serotonin", "result": 0.2793}, {"measurement": "Normalized current", "setting": "[3]; 500 microM serotonin", "result": 0.6574}, {"measurement": "Normalized current", "setting": "[3]; 1000 microM serotonin", "result": 0.8828}, {"measurement": "Normalized current", "setting": "[3]; 2000 microM serotonin", "result": 1}, {"measurement": "Hill coefficient (nH)", "setting": "[3]; [10]", "result": "1.58 ± 0.24"}, {"measurement": "Hill coefficient (nH)", "setting": "[4]; serotonin dose response, TEVC at −60 mV, oocytes, WT", "result": "2.3 ± 0.17"}, {"measurement": "Normalized current", "setting": "[4]; 1 microM serotonin", "result": 0.091}, {"measurement": "Normalized current", "setting": "[4]; 2 microM serotonin", "result": 0.3528}, {"measurement": "Normalized current", "setting": "[4]; 3 microM serotonin", "result": 0.5303}, {"measurement": "Normalized current", "setting": "[4]; 5 microM serotonin", "result": 0.8338}, {"measurement": "Normalized current", "setting": "[4]; 10 microM serotonin", "result": 0.9464}, {"measurement": "Normalized current", "setting": "[4]; 30 microM serotonin", "result": 1}, {"measurement": "Normalized current", "setting": "[5]; 2.5 microM serotonin", "result": 0.00482}, {"measurement": "Normalized current", "setting": "[5]; 5 microM serotonin", "result": 0.04808}, {"measurement": "Normalized current", "setting": "[5]; 15 microM serotonin", "result": 0.6252}, {"measurement": "Normalized current", "setting": "[5]; 20 microM serotonin", "result": 0.7837}, {"measurement": "Normalized current", "setting": "[5]; 100 microM serotonin", "result": 1}, {"measurement": "Hill coefficient (nH)", "setting": "[5]; [10]", "result": "4.4 ± 0.59"}, {"measurement": "Normalized current", "setting": "[6]; 2 microM serotonin", "result": 0.00868}, {"measurement": "Normalized current", "setting": "[6]; 5 microM serotonin", "result": 0.07991}, {"measurement": "Normalized current", "setting": "[6]; 10 microM serotonin", "result": 0.4765}, {"measurement": "Normalized current", "setting": "[6]; 15 microM serotonin", "result": 0.7556}, {"measurement": "Normalized current", "setting": "[6]; 30 microM serotonin", "result": 0.8311}, {"measurement": "Normalized current", "setting": "[6]; 100 microM serotonin", "result": 1}, {"measurement": "Hill coefficient (nH)", "setting": "[6]; [10]", "result": "3.1 ± 0.72"}, {"measurement": "Normalized current", "setting": "[7]; 5 microM serotonin", "result": 0.02946}, {"measurement": "Normalized current", "setting": "[7]; 10 microM serotonin", "result": 0.2522}, {"measurement": "Normalized current", "setting": "[7]; 30 microM serotonin", "result": 0.6081}, {"measurement": "Normalized current", "setting": "[7]; 50 microM serotonin", "result": 0.8641}, {"measurement": "Normalized current", "setting": "[7]; 100 microM serotonin", "result": 0.8795}, {"measurement": "Normalized current", "setting": "[7]; 250 microM serotonin", "result": 0.9933}, {"measurement": "Normalized current", "setting": "[7]; 500 microM serotonin", "result": 0.9971}, {"measurement": "Normalized current", "setting": "[7]; 1000 microM serotonin", "result": 1}, {"measurement": "Hill coefficient (nH)", "setting": "[7]; [10]", "result": "1.9 ± 0.27"}, {"measurement": "Normalized current", "setting": "[8]; 10 microM serotonin", "result": 0.04616}, {"measurement": "Normalized current", "setting": "[8]; 30 microM serotonin", "result": 0.2137}, {"measurement": "Normalized current", "setting": "[8]; 50 microM serotonin", "result": 0.6516}, {"measurement": "Normalized current", "setting": "[8]; 100 microM serotonin", "result": 0.7792}, {"measurement": "Normalized current", "setting": "[8]; 250 microM serotonin", "result": 0.904}, {"measurement": "Normalized current", "setting": "[8]; 500 microM serotonin", "result": 0.985}, {"measurement": "Normalized current", "setting": "[8]; 1000 microM serotonin", "result": 1}, {"measurement": "Hill coefficient (nH)", "setting": "[8]; [10]", "result": "2.6 ± 0.71"}]}, {"smiles": "CN1[C@@H]2CC[C@H]1C[C@@H](OC(=O)c1c[nH]c3ccccc13)C2", "note": "[tropisetron]", "values": [{"measurement": "effect of mutations at the Arg65 position on binding", "setting": "[9]", "result": "only reduced"}, {"measurement": "binding to α7nAChR", "setting": "[1]", "result": "bind to α7nAChR leading to channel activation"}]}]}
